In ChEMBL document CHEMBL5370619, “Targeting the Tyrosine Kinase 2 (TYK2) Pseudokinase Domain: Discovery of the Selective TYK2 Inhibitor ABBV-712” (J Med Chem, 2023):
In brackets after ≈: the same amount, converted by molar mass.

Tests used:
[1] = AUC (0 to infinity) in cynomolgus monkey at 1 mg/kg,po; format: ADME, organism-based, Macaca fascicularis; design: dose 1 mg/kg, route po; details: in vivo
[2] = Unbound clearance in cynomolgus monkey blood at 1 mg/kg, iv; format: ADME, organism-based, Macaca fascicularis; details: in vivo
Mus musculus [3] = test: Anti-inflammatory activity in B10.RII mouse model of mouse IL-23 mini circle induced psoriasiform dermatitis assessed as decrease in ear thickness at 10 mg/kg,po BID for 5 days by caliper analysis; format: functional; design: scale not given: the % may be the effect or the level left; details: time 5 day
CYP3A4 = CYP3A4 (Homo sapiens, UniProt P08684); test: Induction of CYP3A4 in human hepatocytes assessed as fold increase in mRNA level at 10 uM incubated for 24 hrs by RT-qPCR analysis relative to control; format: ADME, cell-based, Hepatocyte; details: read-out: FC
Mus musculus [4] = test: Anti-inflammatory activity in po dosed B10.RII mouse model of mouse IL-23 mini circle induced psoriasiform dermatitis assessed as decrease in ear thickness measured at 1 to 100 ng/ml of whole blood drug exposure level measured after 30 mins; format: functional, organism-based; details: 0.5 h
[5] = In vivo inhibition of TYK2 in IL-12/IL-18 induced C57/B6 mouse model assessed as reduction in serum IFN-gamma production at 100 mg/kg,po pretreated for 30 mins prior to IL-12/IL-18 challenge and measured after 4 hrs by MSD assay; format: functional; details: C57/B6, 4.5 h, time 270 min
Mus musculus [6] = test: Anti-inflammatory activity in B10.RII mouse model of mouse IL-23 mini circle induced psoriasiform dermatitis assessed as decrease in ear thickness at 100 mg/kg,po BID for 5 days by caliper analysis; format: functional; design: scale not given: the % may be the effect or the level left; details: time 5 day
[7] = Half life in cynomolgus monkey at 1 mg/kg, iv; format: ADME, organism-based, Macaca fascicularis; details: in vivo
[8] = In vivo inhibition of TYK2 in IL-12/IL-18 induced C57/B6 mouse model assessed as reduction in serum IFN-gamma production at 10 mg/kg,po pretreated for 30 mins prior to IL-12/IL-18 challenge and measured after 4 hrs by MSD assay; format: functional; details: C57/B6, 4.5 h, time 270 min
[9] = Unbound clearance in rat blood at 1 mg/kg, iv or 1 mg/kg,po; format: ADME, organism-based; details: in vivo
Mus musculus [10] = test: Anti-inflammatory activity in B10.RII mouse model of mouse IL-23 mini circle induced psoriasiform dermatitis assessed as decrease in ear thickness at 30 mg/kg,po BID for 5 days by caliper analysis; format: functional; design: scale not given: the % may be the effect or the level left; details: time 5 day
[11] = target: Non-receptor tyrosine-protein kinase TYK2 (Mus musculus, UniProt Q9R117); test: Inhibition of TYK2 in C57/B6 mouse whole blood assessed as decrease in STAT4 phosphorylation preincubated for 30 mins followed by mouse IL-12p70 stimulation and measured after 20 mins by flow cytometry; format: tissue-based
[12] = In vivo inhibition of TYK2 in IL-12/IL-18 induced C57/B6 mouse model assessed as reduction in serum IFN-gamma production at 30 mg/kg,po pretreated for 30 mins prior to IL-12/IL-18 challenge and measured after 4 hrs by MSD assay; format: functional; details: C57/B6, 4.5 h, time 270 min

Chain of Non-receptor tyrosine-protein kinase TYK2 (Q9R117 whole entry): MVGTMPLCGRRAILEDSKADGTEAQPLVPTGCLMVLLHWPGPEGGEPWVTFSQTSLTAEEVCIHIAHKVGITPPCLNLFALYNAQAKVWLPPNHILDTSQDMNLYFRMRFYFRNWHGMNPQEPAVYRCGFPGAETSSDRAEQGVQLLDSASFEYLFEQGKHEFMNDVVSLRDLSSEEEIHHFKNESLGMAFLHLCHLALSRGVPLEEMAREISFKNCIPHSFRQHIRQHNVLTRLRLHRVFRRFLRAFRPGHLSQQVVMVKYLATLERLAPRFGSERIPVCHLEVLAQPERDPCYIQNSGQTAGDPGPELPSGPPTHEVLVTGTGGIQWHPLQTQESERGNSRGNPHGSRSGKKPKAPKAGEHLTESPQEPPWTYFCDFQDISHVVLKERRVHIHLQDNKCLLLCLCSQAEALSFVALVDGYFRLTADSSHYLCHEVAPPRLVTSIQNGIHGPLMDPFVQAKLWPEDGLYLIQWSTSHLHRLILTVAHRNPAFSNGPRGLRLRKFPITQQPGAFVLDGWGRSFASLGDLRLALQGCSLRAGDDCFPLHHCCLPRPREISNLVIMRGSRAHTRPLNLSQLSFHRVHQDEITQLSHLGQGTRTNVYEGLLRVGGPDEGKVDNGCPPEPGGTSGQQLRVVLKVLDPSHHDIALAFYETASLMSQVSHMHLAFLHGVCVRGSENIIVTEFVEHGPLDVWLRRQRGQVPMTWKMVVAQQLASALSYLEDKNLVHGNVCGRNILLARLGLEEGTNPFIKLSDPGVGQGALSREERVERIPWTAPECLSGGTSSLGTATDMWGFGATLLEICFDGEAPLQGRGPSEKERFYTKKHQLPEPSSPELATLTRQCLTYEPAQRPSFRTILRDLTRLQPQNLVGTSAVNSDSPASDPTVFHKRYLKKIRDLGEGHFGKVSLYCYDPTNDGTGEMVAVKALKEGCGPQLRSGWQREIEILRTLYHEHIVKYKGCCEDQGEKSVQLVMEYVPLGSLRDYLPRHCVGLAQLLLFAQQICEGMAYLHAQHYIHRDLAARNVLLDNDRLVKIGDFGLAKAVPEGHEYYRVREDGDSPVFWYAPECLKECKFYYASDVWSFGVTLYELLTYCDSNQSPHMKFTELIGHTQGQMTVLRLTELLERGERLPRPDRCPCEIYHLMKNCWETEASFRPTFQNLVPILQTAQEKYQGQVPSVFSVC
Chain of CYP3A4 (P08684 whole entry): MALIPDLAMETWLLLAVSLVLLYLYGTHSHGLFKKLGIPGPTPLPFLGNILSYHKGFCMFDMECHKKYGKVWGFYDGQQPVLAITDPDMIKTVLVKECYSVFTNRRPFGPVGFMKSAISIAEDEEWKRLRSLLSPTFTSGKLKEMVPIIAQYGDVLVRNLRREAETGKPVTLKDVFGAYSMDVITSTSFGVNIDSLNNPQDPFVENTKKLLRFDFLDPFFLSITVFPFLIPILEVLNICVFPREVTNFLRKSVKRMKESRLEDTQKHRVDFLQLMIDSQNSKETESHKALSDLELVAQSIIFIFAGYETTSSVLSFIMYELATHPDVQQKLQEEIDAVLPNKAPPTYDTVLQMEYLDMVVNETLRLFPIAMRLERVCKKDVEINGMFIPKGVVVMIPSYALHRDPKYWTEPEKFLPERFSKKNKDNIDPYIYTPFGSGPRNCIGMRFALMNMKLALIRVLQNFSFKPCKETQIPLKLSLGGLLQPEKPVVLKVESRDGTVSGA

## COCc1cc(-c2cn(C3COC3)c3cnc(NC(C)=O)cc23)nc([C@]2(OC)CCOC2)c1
[1]
  AUC(0-inf): 80 ng·h/mL
[2]
  CL free: 38.3 mL/min/kg
Mus musculus [3]
  Activity: 38%
CYP3A4
  fold induction at 24 h, 10 µM: 1.5
Mus musculus [4]
  EC50: 0.104 µg/mL (≈ 0.23 µM)
[5]
  inhibition in vivo at 100 mg/kg: 84%
Mus musculus [6]
  Activity: 61%
[7]
  half-life: 1.2 h
[8]
  inhibition in vivo at 10 mg/kg: 24%
[9]
  CL free: 68.3 mL/min/kg
Mus musculus [10]
  Activity: 51%
[11]
  EC50: 1.4 µM
[12]
  inhibition in vivo at 30 mg/kg: 77%
